In patent US20230141981A1, “NOVEL COMPOUNDS AND COMPOSITION FOR TARGETED THERAPY OF KIDNEY-ASSOCIATED CANCERS” (SHANGHAI MICURX PHARMACEUTICALS CO., LTD, priority 2020, published 2023):
Bridge positions count the residues as written; N and C are the ends. Square brackets hold non-standard residues; d marks the D form. Peptide text beside a SMILES is read from it. * marks the point of attachment. X1 = CNC(=O)c1ccccc1Sc1ccc2c(/C=C/c3ccccn3)nn(C(=O)N(CCNC(=O)CC[C@H](N)C(=O)O)CCC(=O)*)c2c1; X3 = CNC(=O)c1ccccc1Sc1ccc2c(/C=C/c3ccccn3)nn(C(=O)*)c2c1; Dab = NCC[C@H](N)C(=O)O

How the values were obtained:
[1] = Mouse PK: axitinib concentration in blood plasma and kidney tissue post-administration; assay type: in vivo; details: oral gavage, single dose 10 mg/kg
Experimental: Preferential accumulation of compounds provided herein in kidneys (or near the site of a kidney cancer) may be evaluated by pharmacokinetic (PK) tests, such as in a standard rat PK test.
In PK studies, the levels (concentration) of a therapeutic drug is determined in key body compartments, such as blood and select organ tissues, is determined over a given time course. […] For therapy of renal cancers, the targeted organ is kidney.

[2] = tested on: Caki-1; experiment: In vitro inhibition of cancer cells, CTG assay, 72 h; assay type: cell-based, human; details: Caki-1, 72 h incubation
Description: In vitro activity of compounds provided herein may be assessed by standard testing procedures using various cancer cell lines (alongside normal cell comparators), such as described, for example, in ACS Pharmacol. Transl. Sci. 2019, vol. 2, p. 18; J. Med. Chem. 2018, vol. 61, p. 5304; and methods in references cited therein.
Therein, Caki-1 is a human clear cell renal cell carcinoma (ccRCC) line. The ACTHN cell line was derived from the pleural effusion of a patient with metastatic renal carcinoma. The 786-O cell line is a hypertriploid renal cancer cell carcinoma cell line. Generally, cells were plated into […] microplates and pre-incubated for 24 h. Subsequently, the test compound solutions were added, and cells growth inhibition analyzed with 9-point data plot. After 72 h of the incubation, the number and proportion of the viable cells was determined by CTG assay, and IC50 values calculated.

[3] = 14-days repeat-dose mouse tolerability test; details: in vivo, 18 mg/kg/day, read-out: well-tolerated dose, 14-days repeat-dose
Description: In addition the high efficacy against renal cancers, such drug must be well-tolerated.

CNC(=O)c1ccccc1Sc1ccc2c(/C=C/c3ccccn3)n[nH]c2c1 [Axitinib, N-methyl-2-[[3-[(E)-2-pyridin-2-ylethenyl]-1H-indazol-6-yl]sulfanyl]benzamide]
Blood Plasma Conc. (axitinib) ([1]; T = 4 h): T = 4 h: 95.1 ng/mL | Blood Plasma Conc. (axitinib) ([1]; T = 6 h): T = 6 h: 35.4 ng/mL

CNC(=O)c1ccccc1Sc1ccc2c(/C=C/c3ccccn3)nn(C(=O)N[C@@H](CCN)C(=O)N[C@H](C(=O)N[C@@H](CCN)C(=O)N[C@H]3CCNC(=O)[C@H]([C@@H](C)O)NC(=O)[C@H](CCN)NC(=O)[C@H](CCN)NC(=O)[C@H](CC(C)C)NC(=O)[C@@H](Cc4ccccc4)NC(=O)[C@H](CCN)NC3=O)[C@@H](C)O)c2c1 [Example 17] (X3-[Dab]T[Dab][Dab][Dab][dF]L[Dab][Dab]T; lactam 4-C)
IC50 [2]: 8.6 µM

CNC(=O)c1ccccc1Sc1ccc2c(/C=C/c3ccccn3)nn(C(=O)N(CCNC(=O)CC[C@H](N)C(=O)O)CCC(=O)N[C@H](C(=O)N[C@@H](CCN)C(=O)N[C@H]3CCNC(=O)[C@H]([C@@H](C)O)NC(=O)[C@H](CCN)NC(=O)[C@H](CCN)NC(=O)[C@H](CC(C)C)NC(=O)[C@@H](Cc4ccccc4)NC(=O)[C@H](CCN)NC3=O)[C@@H](C)O)c2c1 [Example 29] (X1-T[Dab][Dab][Dab][dF]L[Dab][Dab]T; lactam 3-C; N-terminus assumed)
MTD at 336 h [3]: ≥ 18 mg/kg/day

Cc1ccc(Nc2nccc(N(C)c3ccc4c(C)n(C)nc4c3)n2)cc1S(N)(=O)=O [Pazopanib, 5-[[4-[(2,3-dimethylindazol-6-yl)-methylamino]pyrimidin-2-yl]amino]-2-methylbenzenesulfonamide]
IC50 ([2]; Homo sapiens): 19.4 µM

CCN(CC)CCNC(=O)c1c(C)[nH]c(/C=C2\C(=O)Nc3ccc(F)cc32)c1C [Sunitinib, (Z)—N-(2-(diethylamino)ethyl)-5-((5-fluoro-2-oxoindolin-3-ylidene)methyl)-2,4-dimethyl-1H-pyrrole-3-carboxamide]
IC50 ([2]; Homo sapiens): 6.9 µM
